Source: paper PMC2677997 (Bioorganic & medicinal chemistry, 2009)

Target: BoNT/A LC (BoNTA-LC 1-425) (Clostridium botulinum, UniProt P0DPI0)
Type: biochemical

Sequence of BoNT/A LC (BoNTA-LC 1-425) (P0DPI0 1-425 limits assumed): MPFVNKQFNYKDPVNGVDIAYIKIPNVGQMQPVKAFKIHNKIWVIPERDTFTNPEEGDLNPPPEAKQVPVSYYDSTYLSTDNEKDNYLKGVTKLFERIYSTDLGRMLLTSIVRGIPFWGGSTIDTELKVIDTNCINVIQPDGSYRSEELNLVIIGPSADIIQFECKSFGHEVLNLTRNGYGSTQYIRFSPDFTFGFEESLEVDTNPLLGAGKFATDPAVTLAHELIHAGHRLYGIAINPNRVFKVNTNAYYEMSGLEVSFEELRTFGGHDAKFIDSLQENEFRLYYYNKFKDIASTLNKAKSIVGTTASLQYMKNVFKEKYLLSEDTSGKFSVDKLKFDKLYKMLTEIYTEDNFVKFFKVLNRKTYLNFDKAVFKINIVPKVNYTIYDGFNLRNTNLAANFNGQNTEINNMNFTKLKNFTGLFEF

Structure (SMILES)	inhibitory activity
O=C(CO)Nc1cc(-c2ccc(Cl)cc2)n[nH]1 [Compound 6, N-(3-(4-Chlorophenyl)-1H-pyrazol-5-yl)-2-hydroxyacetamide]	abolishes all activity
CC(=O)Nc1cc(-c2ccc(Cl)cc2)n[nH]1 [Compound 7, N-(3-(4-Chlorophenyl)-1H-pyrazol-5-yl)acetamide]	abolishes all activity
